Experiment [1] has as its target T1, human HIF-PHD2 (Homo sapiens, UniProt Q9GZT9).
T1 construct: purchased CrystalGenomics Ltd
Put plainly: HIF-PHD inhibition assay (fluorescence polarization), human HIF-PHD2. Format: biochemical. The conditions noted are these: 2-oxoglutaric acid 3.33 μmol/L. In outline:
(§1)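 FP readout; enzyme activity = mP post-enzyme − mP pre-enzyme. FAM-labelled probe, ACA spacer.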
(Polarisation of emitted light reports the rotation of a fluorescent probe.)

The target in experiment [2] is T2, human HIF-PHD3 (Homo sapiens, UniProt Q9H6Z9).
T2 construct: purchased CrystalGenomics Ltd
Put plainly: HIF-PHD inhibition assay (fluorescence polarization), human HIF-PHD3. Format: biochemical. The conditions noted are these: 2-oxoglutaric acid 166 μmol/L. In outline: as §1

Experiment [3] deals with Hep3B cells. Put plainly: EPO production assay (ELISA of culture supernatant). The conditions noted are these: Homo sapiens, 3 μmol/L test compound, 48 hours, relative to control (0.1% DMSO), read-out: EPO production stimulation rate with 3 μmol/L test compound. In kind it is cell-based. Here is the method:
The stimulatory effect of the compound onEPO production was determined as follows using Hep3B cells.
Cells were seeded on 96 well plates at 40000 cells/well, and the plate was incubated overnight in MEM medium containing 10% fetal bovine serum (FBS) at 37° C. under 5% CO2. The next day, the medium was replaced with MEM containing 0.5% FBS, followed by addition of test compound. The test compound was dissolved in dimethyl sulfoxide and added to the cell so that the final concentration of dimethyl sulfoxide was 0.1%. After incubation for additional 48 hours, the culture supernatant was collected, and EPO contained in the supernatant was determined using ELISA kit (EPO ELISA Kit 11-693-417-001, Roche Co.). The results were expressed as stimulation rate of EPO production (fold), which was calculated as the relative value of the EPO production with 3 μmol/L of the test compound compared to the EPO production without stimulation (control).
Stimulation rate of EPO production (fold)=(EPO production with addition of test compound)/(EPO production of control)
Background: In an ELISA, binding on a coated surface is turned into a signal by an enzyme label.

T2 sequence (Q9H6Z9 whole entry): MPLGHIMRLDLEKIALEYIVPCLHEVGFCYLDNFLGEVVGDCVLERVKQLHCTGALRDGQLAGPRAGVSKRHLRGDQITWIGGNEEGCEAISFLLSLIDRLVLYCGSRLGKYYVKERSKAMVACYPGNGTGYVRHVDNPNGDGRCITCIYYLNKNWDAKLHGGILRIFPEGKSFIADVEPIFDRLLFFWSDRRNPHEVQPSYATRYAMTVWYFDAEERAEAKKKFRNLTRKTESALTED
T1 sequence (Q9GZT9 2-426 limits assumed): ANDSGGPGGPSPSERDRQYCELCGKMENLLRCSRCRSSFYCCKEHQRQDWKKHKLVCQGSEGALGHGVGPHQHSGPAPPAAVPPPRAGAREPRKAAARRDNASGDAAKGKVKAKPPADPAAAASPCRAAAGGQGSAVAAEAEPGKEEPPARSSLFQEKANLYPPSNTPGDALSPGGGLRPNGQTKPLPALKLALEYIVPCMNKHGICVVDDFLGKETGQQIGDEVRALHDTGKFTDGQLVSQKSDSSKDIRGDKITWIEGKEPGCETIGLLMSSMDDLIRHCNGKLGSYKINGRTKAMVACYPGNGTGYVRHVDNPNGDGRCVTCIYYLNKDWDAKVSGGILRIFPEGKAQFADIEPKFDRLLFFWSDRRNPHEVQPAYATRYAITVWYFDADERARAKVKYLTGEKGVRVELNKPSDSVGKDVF

For `Cc1ccc(C(C(C)C)n2ncc3nc(-n4cc(C(=O)O)cn4)nc(O)c32)cc1` (single isomer, unassigned) [Example 26], the values for the IC50 in experiment [1] and in experiment [2] were 66 nM and 1500 nM, respectively. In addition, the fold induction at 3 µM in experiment [3] was determined as 3.4.
As for `CCC(c1ccc(Cl)cc1)n1ncc2nc(-n3cc(C(=O)O)cn3)nc(O)c21` (single isomer, unassigned) [Example 323], the IC50 – broadly, the concentration that inhibits the measured activity by half – is 22 nM in experiment [1] and 300 nM in experiment [2]. The fold induction at 3 µM in experiment [3] was 3.8.
The matching figures for `CCC(c1ccc(C(F)(F)F)cc1)n1ncc2nc(-n3cc(C(=O)O)cn3)nc(O)c21` (single isomer, unassigned) [Example 327]: 290 nM, 1200 nM and 9.4.
`O=C(O)c1cnn(-c2nc3cnn(Cc4ccc(Cl)c(Cl)c4)c3c(=O)[nH]2)c1` [Example 1, 1-[1-(3,4-dichlorobenzyl)-7-hydroxy-1H-pyrazolo[4,3-d]pyrimidin-5-yl]-1H-pyrazole-4-carboxylic acid] showed an IC50 in experiment [2] of 160 nM. Besides, the fold induction at 3 µM in experiment [3] stood at 4.6.
For the compound `COc1ccc(Cn2ncc3nc(-n4cc(C(=O)O)cn4)nc(O)c32)cc1` [Example 3], the IC50 in experiment [1] turned out to be 31 nM; in experiment [2], 160 nM. Further, the fold induction at 3 µM in experiment [3] came to 2.1.
For `O=C(O)c1cnn(-c2nc(O)c3c(cnn3Cc3cc(C(F)(F)F)cc(Cl)c3F)n2)c1` [Example 4], in that order: 27 nM, 780 nM and 1.7.
For `O=C(O)c1cnn(-c2nc(O)c3c(cnn3Cc3ccc(Cl)cc3F)n2)c1` [Example 5], in that order: 130 nM, 740 nM and 2.9.
The matching figures for `O=C(O)c1cnn(-c2nc(O)c3c(cnn3Cc3ccc(C(F)(F)F)c(Cl)c3)n2)c1` [Example 6]: 41 nM, 130 nM and 6.1.
In the case of `O=C(O)c1cnn(-c2nc(O)c3c(cnn3Cc3ccc(Cl)c(F)c3)n2)c1` [Example 7], the half-maximal inhibitory concentration (IC50) in experiment [1] amounted to 23 nM; in experiment [2], 320 nM. In addition, the fold induction at 3 µM in experiment [3] worked out at 3.4.
For `O=C(O)c1cnn(-c2nc(O)c3c(cnn3Cc3cc(F)cc(C(F)(F)F)c3)n2)c1` [Example 8], in that order: 48 nM, 560 nM and 5.4.
For `O=C(O)c1cnn(-c2nc(O)c3c(cnn3Cc3cccc(C(F)(F)F)c3)n2)c1` [Example 9], in that order: 33 nM, 410 nM and 2.8.
With `O=C(O)c1cnn(-c2nc(O)c3c(cnn3Cc3ccc(F)c(Cl)c3)n2)c1` [Example 10], the values for the IC50 in experiment [1] and in experiment [2] were 22 nM and 240 nM, respectively. The fold induction at 3 µM in experiment [3] worked out at 3.4.
Turning to `O=C(O)c1cnn(-c2nc(O)c3c(cnn3Cc3cccc(OC(F)(F)F)c3)n2)c1` [Example 11], the concentration for half-maximal inhibition (IC50) in experiment [1] is 62 nM; in experiment [2] it was 470 nM. Besides, the fold induction at 3 µM in experiment [3] was 2.5.
Turning to `O=C(O)c1cnn(-c2nc(O)c3c(cnn3Cc3ccc(F)c(C(F)(F)F)c3)n2)c1` [Example 12], the concentration for half-maximal inhibition (IC50) in experiment [1] was 44 nM; in experiment [2], > 3000 nM. Also, in experiment [3], the fold induction at 3 µM worked out at 2.3.
`O=C(O)c1cnn(-c2nc(O)c3c(cnn3Cc3ccc(Cl)cc3)n2)c1` [Example 13]: the half-maximal inhibitory concentration (IC50) in experiment [1] was determined as 20 nM; in experiment [2], 230 nM. The fold induction at 3 µM in experiment [3] was determined as 4.3.
Turning to `O=C(O)c1cnn(-c2nc(O)c3c(cnn3Cc3ccc(F)c(Br)c3)n2)c1` [Example 14], the figures for the IC50 in experiment [1] and in experiment [2] were 31 nM and 280 nM, respectively. Also, the fold induction at 3 µM in experiment [3] is 1.4.
With `O=C(O)c1cnn(-c2nc(O)c3c(cnn3Cc3cc(F)cc(Br)c3)n2)c1` [Example 15], the half-maximal inhibitory concentration (IC50) was found to be 52 nM in experiment [1] and 290 nM in experiment [2]. Further, the fold induction at 3 µM in experiment [3] was determined as 1.7.
On to `C[C@H](c1ccc(Cl)c(Cl)c1)n1ncc2nc(-n3cc(C(=O)O)cn3)nc(O)c21` [Example 22], for which the midpoint of inhibition in experiment [2], the IC50, lay at 540 nM. In addition, the fold induction at 3 µM in experiment [3] was determined as 6.9.
For `C[C@@H](c1ccc(Cl)c(Cl)c1)n1ncc2nc(-n3cc(C(=O)O)cn3)nc(O)c21` [Example 23], in that order: 220 nM and 3.2.
For `O=C(O)c1cnn(-c2nc3cnn(Cc4ccc(-c5ccccc5)cc4)c3c(=O)[nH]2)c1` [Example 55], in that order: 24 nM and 34.
The matching figures for `O=C(O)c1cnn(-c2nc3cnn(Cc4ccc(-c5ccccc5F)c(F)c4)c3c(=O)[nH]2)c1` [Example 93]: 130 nM and 23.
Consider `Cc1ccc(C(C)(C)Cn2ncc3nc(-n4cc(C(=O)O)cn4)nc(O)c32)cc1` [Example 119], for which the IC50 in experiment [1] was determined as 240 nM. For the same compound, the fold induction at 3 µM in experiment [3] came out at 3.7.
The compound `Cc1nn(CC2CCCCC2)c2c(O)nc(-n3cc(C(=O)O)cn3)nc12` [Example 230] displayed an IC50 in experiment [1] of 83 nM. The fold induction at 3 µM in experiment [3] came to 2.
Turning to `O=C(O)c1cnn(-c2nc3cn(Cc4ccc(-c5ccccc5)cc4)nc3c(=O)[nH]2)c1` [Example 237], in experiment [2], the midpoint of inhibition, the IC50, lay at 38 nM. Further, the fold induction at 3 µM in experiment [3] stood at 4.3.
As for `CC(C)CC(CC(C)C)n1ncc2nc(-n3cc(C(=O)O)cn3)nc(O)c21` [Example 490], the IC50 was determined as 94 nM in experiment [1] and 1100 nM in experiment [2].
For `CC(C)(C)Cn1ncc2nc(-n3cc(C(=O)O)cn3)nc(O)c21` [Example 491], the values for the IC50 in experiment [1] and in experiment [2] were 99 nM and 630 nM, respectively.
The matching figures for `CCC(C)(C)Cn1ncc2nc(-n3cc(C(=O)O)cn3)nc(O)c21` [Example 492]: 110 nM and 440 nM.
For `CCC(CC)Cn1ncc2nc(-n3cc(C(=O)O)cn3)nc(O)c21` [Example 494], in that order: 89 nM and 870 nM.
With `CC(C)C[C@H](C)n1ncc2nc(-n3cc(C(=O)O)cn3)nc(O)c21` [Example 496], the IC50 was determined as 41 nM in experiment [1] and 530 nM in experiment [2].
For `CCCC[C@H](C)n1ncc2nc(-n3cc(C(=O)O)cn3)nc(O)c21` [Example 497], in that order: 52 nM and 890 nM.
For `CC(C)(C)Cn1nc(F)c2nc(-n3cc(C(=O)O)cn3)nc(O)c21` [Example 499], in that order: 130 nM and 760 nM.
For `Cc1nn(CC(C)(C)C)c2c(O)nc(-n3cc(C(=O)O)cn3)nc12` [Example 500], in that order: > 300 nM and 750 nM.
Turning to `Cn1nc(C2CCCCC2)c2nc(-n3cc(C(=O)O)cn3)nc(O)c21` [Example 501], the values for the 50% inhibitory concentration (IC50) in experiment [1] and in experiment [2] were > 300 nM and > 3000 nM, respectively.
Turning to `Cn1nc(-c2ccccc2)c2nc(-n3cc(C(=O)O)cn3)nc(O)c21` [Example 502], the values for the half-maximal inhibitory concentration (IC50) in experiment [1] and in experiment [2] were > 300 nM and 1200 nM, respectively.
The matching figures for `Cn1nc(Cc2ccccc2)c2nc(-n3cc(C(=O)O)cn3)nc(O)c21` [Example 503]: > 300 nM and > 3000 nM.
For the compound `C[C@@H](c1ccc(F)cc1Cl)n1cc2nc(-n3cc(C(=O)O)cn3)nc(O)c2n1` [Example 505], the IC50 in experiment [1] was 51 nM; in experiment [2] it was 440 nM.

Values taken from patent US20150239889A1, “PYRAZOLOPYRIMIDINE COMPOUND” (MITSUBISHI TANABE PHARMA CORPORATION, priority 2012, published 2015).
